Measurements taken from patent US10738101B2, “Method for selecting odor-controlling substance” (Kao Corporation, priority 2015, dated 2020).

Columns and labels:
OR9Q2 = target: T1, OR9Q2 (Homo sapiens, UniProt Q8NGE9); test: Luciferase reporter gene assay, OR9Q2-expressing HEK293 cells; type: cell-based; details: FIG. 2, 5B, 5C
T1 construct: expressed in transfected cells; host or cells: HEK293
T1 sequence (Q8NGE9 1-314): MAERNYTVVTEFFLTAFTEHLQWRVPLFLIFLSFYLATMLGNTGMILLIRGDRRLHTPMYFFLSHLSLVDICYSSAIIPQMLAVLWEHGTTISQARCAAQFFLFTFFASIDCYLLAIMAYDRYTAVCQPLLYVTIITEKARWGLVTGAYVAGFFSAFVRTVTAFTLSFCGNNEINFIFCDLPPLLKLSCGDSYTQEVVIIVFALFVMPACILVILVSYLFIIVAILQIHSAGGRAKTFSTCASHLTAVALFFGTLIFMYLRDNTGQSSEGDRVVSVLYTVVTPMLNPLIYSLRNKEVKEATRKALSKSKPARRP
Source text: On the basis of sequence information registered in GenBank, genes respectively encoding 370 human olfactory receptors shown in Tables 1-1 and 1-2 and genes respectively encoding the human olfactory receptors OR5AN1, OR10G4 and OR9Q2 (respectively set forth in SEQ ID NOS: 1, 3 and 5) were cloned. Each of the genes was cloned by the PCR using human genomic DNA person (G1521: Promega) as a template. Each gene amplified by the PCR was incorporated into a pENTR vector (Invitrogen) in accordance with the instruction, and was recombined to NotI and AscI sites produced downstream from a Flag-Rho tag sequence on a pME18S vector by using NotI and AscI sites present on the pENTR vector.
In 1) of Example 1, HEK293 cells on which the 370 human olfactory receptors were respectively expressed were produced. A reaction solution having a composition shown in Table 2 was prepared and allowed to stand still in a clean bench for 15 minutes, and the resultant was added by 4.4 μL per well in a 384-well plate (BioCoat). Subsequently, the HEK293 cells (20×10^4 cells/cm^2) were seeded by 40 μL per well, and the resultant was cultured for 24 hours in an incubator kept at 37° C. and 5% CO2.
In 2) of Example 1 and Examples 2 and 3, HEK293 cells in which the human olfactory receptor OR5AN1, OR10G4, OR9Q2 or OR1A1 was expressed were produced. A reaction solution having a composition shown in Table 3 was prepared and allowed to stand still in a clean bench for 15 minutes, and the resultant was added by 10 μL per well in a 96-well plate (BioCoat). Subsequently, the HEK293 cells (3×10^5 cells/cm^2) were seeded by 90 μL per well, and the resultant was cultured for 24 hours in an incubator kept at 37° C. and 5% CO2. Cells obtained under conditions for not expressing the olfactory receptor (Mock) were also prepared to be used as a control, and were used similarly in an experiment.
The olfactory receptor expressed on the HEK293 cells increases the intracellular cAMP amount by activating adenylate cyclase in conjugation with intracellular Gαs. In the measurement of odor response in this study, luciferase reporter gene assay for monitoring the increase of the intracellular cAMP amount as a luminescence value derived from a firefly luciferase gene (fluc2P-CRE-hygro) was employed. Besides, a fused Renilla luciferase (hRluc-CMV) gene was simultaneously transferred downstream of the CMV promoter, so as to be used as an internal standard for correcting the gene transfer efficiency or an error in the number of cells. For measuring the activity of the luciferase, Dual-Glo(™) Luciferase Assay System (Promega) was used, and the measurement was performed in accordance with the operation instruction of the product. Under each of various stimulation conditions, a value fLuc/hRluc obtained by dividing a firefly luciferase-derived luminescence value by a Renilla luciferase-derived luminescence value was calculated. A value obtained by dividing a value fLuc/hRluc induced by stimulation with an odorous substance by a value fLuc/hRluc of a cell not stimulated with the odorous substance was obtained as fold increase, which was used as an index of the response intensity. A dose-response curve was analyzed using Graph Pad Prism.
The medium was removed from each of the cultures of the olfactory receptor expressing cells produced according to Reference Example 1, and an odorous substance (muscone, guaiacol or p-cresol) was added thereto. A DMEM medium (Nacalai) containing muscone or guaiacol was added to a 384-well plate containing the culture by 30 μL per well (to a final concentration of muscone of 100 μM and of guaiacol of 1 mM). Alternatively, a CD293 medium (Invitrogen) containing p-cresol was added to a 96-well plate containing the culture by 75 μL per well (to a final concentration of 1 mM). […]

odor of p-cresol = test: Sensory test of cross-adaptation, target odor p-cresol; type: in vivo, human; details: panelists, test sample smelled before target sample, FIG. 6C
Description: The cross-adaptation effect induced by the odorous substance evaluated in Example 2 was estimated by a sensory test. A glass bottle (No. 11, manufactured by Hakuyo Glass Co., Ltd., capacity: 110 mL) was charged with a target odorous substance to be used as a target sample. As the target odorous substance, muscone, guaiacol or p-cresol was used. As the muscone, a cotton ball soaked with 1 mg of muscone was used. As the guaiacol and p-cresol, 1 mL of a mineral oil (Sigma-Aldrich) solution in a concentration of 10 ppm was used. In a similar manner, a glass bottle was charged with a test substance to be used as a test sample. As the test sample, 5 mg of an ethyl vanillin powder, or 1 mL of a mineral oil (Sigma-Aldrich) solution of p-cresyl acetate, p-cresyl isobutyrate or p-methyl quinoline prepared to a concentration of 1,000 ppm was used.
The sensory test was performed by a single blind method by five to eight panelists. The target sample was first presented to each panelist, who was caused to replay on the odor intensity. Next, the test sample was presented for 2 minutes or until the odor could not be perceived. Thereafter, the target sample was presented again, and the panelist was caused to replay on the odor intensity. This series of operations was defined as one set, and the sensory test was carried out with four sets per day per panelist set as the upper limit. A recess of at least 10 minutes or more was provided between the sets.
The panelist was caused to plot the estimated intensity of the target odor on a straight line of 9.5 cm with both ends respectively provided with criteria “No odor” and “Strong odor”. A distance (A) between the position of the target odor intensity plotted in the initial estimate and the end of “No odor”, and a distance (B) between the position of the target odor intensity plotted in the second estimate and the end of “No odor” were obtained, so as to calculate percentage odor intensity of the initial estimate [B/A*100−100]. As this value is smaller, the intensity of the target odor perceived in the second estimate is suppressed stronger as compared with that in the initial estimate, namely, stronger cross-adaptation is induced. If this value is −100%, it means that the target odor was not perceived at all in the second estimate.

[1] = system: odor of p-cresyl isobutyrate; test: Sensory test of cross-adaptation, target odor p-cresyl isobutyrate; type: in vivo, human; details: panelists
[2] = system: odor of p-methyl quinoline; test: Sensory test of cross-adaptation, target odor p-methyl quinoline; type: in vivo, human; details: panelists

Structure (SMILES): C[C@@H]1CCCCCCCCCCCCC(=O)C1 [muscone, (R)-3-methyl-1-cyclopentadecanone]
- responsiveness of OR9Q2 (fold increase) (OR9Q2): do not have responsiveness
- cross-adaptation of p-cresol odor induced by test substance (odor of p-cresol): did not induce the cross-adaptation
- cross-adaptation of p-cresyl isobutyrate odor induced by test substance [1]: did not induce the cross-adaptation
- cross-adaptation of p-methyl quinoline odor induced by test substance [2]: did not induce the cross-adaptation
